US11364277B2, “Treatment of ascites” (BioVie Inc., priority 2015, dated 2022)
Several values for one entry are separate records, joined by “and”; a condition that tells them apart may be missing. Equal values may be shown once. Where a SMILES comes first, the peptide text is derived from it. Bridges are numbered along the chain shown (N, C = ends).

How the values were obtained:
[1] = human, in vivo; cited from earlier work
[2] = tested on: subjects with ascites due to liver cirrhosis, not type 1 or type 2 HRS; assay type: in vivo, human
Procedure: 15 subjects that are to be confirmed to have ascites, but not type 1 or type 2 HRS, due to liver cirrhosis will be administered continuous low dose (escalating from 2.0 to 3.0 mg per 24 hours) terlipressin via ambulatory infusion pump. […] Accordingly, continuous infusion pump (CIP) terlipressin represents a potentially life-saving solution for these seriously ill patients who are still ambulatory (have not yet been administered to the hospital for treatment) and have not developed type 1 or type 2 HRS.

[3] = human, in vivo, cited from earlier work
[4] = tested on: HRS patients with diuretic intractable or refractory ascites; assay: Example 2: six HRS patients with ascites treated with continuous infusion terlipressin, evaluated before, during and after treatment; assay type: in vivo, human; details: for Body Weight After / Plasma Sodium After / Serum Creatinine After / Serum Urea After: after treatment;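 on Serum Urea After: serum urea in mmol/L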;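 on Serum Urea During: serum urea in mmol/L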
Procedure: Six FIRS patients treated with continuous infusion terlipressin were evaluated for improvement in […]. All six patients had diuretic intractable or refractory ascites (5 of 6 with hyponatremia). The patients were evaluated for the following parameters before, during and after treatment: number of paracentesis procedures per month, volume of ascites removed, weight, serum sodium, urinary sodium excretion, serum creatinine, serum urea, and whether diuretics were included in the treatment regimen.

[5] = Average (excludes patients #2, #3, #5)
[6] = Patient 1, max. dose 12 mg/day, 63 days
[7] = Patient 1, max. dose 12 mg/day, 63 days, diuretics during: A
[8] = Patient 2, max. dose 12 mg/day, 195 days
[9] = Patient 2, max. dose 12 mg/day, 195 days, diuretics during: None
[10] = Patient 3, max. dose 3 mg/day, 10 days
[11] = Patient 3, max. dose 3 mg/day, 10 days, diuretics during: None
[12] = Patient 4, max. dose 10 mg/day, 11 days
[13] = Patient 4, max. dose 10 mg/day, 11 days, diuretics during: None
[14] = Patient 5, max. dose 3 mg/day, 22 days
[15] = Patient 5, max. dose 3 mg/day, 22 days, diuretics during: None
[16] = Patient 6, max. dose 2 mg/day, 12 days
[17] = Patient 6, max. dose 2 mg/day, 12 days, diuretics during: F + A

NCCCC[C@H](NC(=O)[C@@H]1CCCN1C(=O)[C@@H]1CSSC[C@H](NC(=O)CNC(=O)CNC(=O)CN)C(=O)N[C@@H](Cc2ccc(O)cc2)C(=O)N[C@@H](Cc2ccccc2)C(=O)N[C@@H](CCC(N)=O)C(=O)N[C@@H](CC(N)=O)C(=O)N1)C(=O)NCC(N)=O [terlipressin] (H-GGGCYFQNCPKG-NH2; disulfide 4-9)
half-life [1]: 26 min | severity of ascites and accumulation of ascites fluid ([2]; 2.0 to 3.0 mg per 24 hours escalating, 1 day to 28 days, expected): decrease the severity of ascites and the accumulation of ascites fluid | average amount of fluid withdrawn after beginning therapy ([2]; compared to prior to the start of treatment, expected): significantly less than prior to the start of treatment | number of paracentesis procedures required over a 28-day period ([2]; compared to the 28-day period prior to treatment inception, expected): reduce the number of paracentesis procedures | safety of continuous infusion pump terlipressin ([2]; human, in vivo): no serious side effects | patients with side effects ([3]; iv): up to 40% | patients with severe side effects requiring discontinuation of treatment [3]: up to 10% | Plasma Sodium % Change ([4]; Average): 5% | Plasma Sodium During ([4]; Average): 135 mEq/L | Serum Creatinine % Change ([4]; Average): −47% | Serum Creatinine During ([4]; Average): 127 µM | Serum Urea % Change ([4]; Average): −45% | Serum Urea During ([4]; Average): 15.1 mmol/L | Body Weight % Change ([4]; Average (excludes Patient #4)): −11% | Body Weight During ([4]; Average (excludes Patient #4)): 73 kg | Body Weight After ([4]; Average (excludes Patient #4)): 87 kg | Paracenteses/Month % Change ([4]; Average (excludes patient #1)): −32% | Volume Fluid Removed/Month % Change ([4]; Average (excludes patient #1)): −55% | Volume Fluid Removed/Month During ([4]; Average (excludes patient #1)): 14 L | Urinary Na over 24 hours % Change [4, 5]: 1632% | Urinary Na over 24 hours During [4, 5]: 127 mEq/24 hr | Plasma Sodium After ([4]; Average): 136 mEq/L | Serum Creatinine After ([4]; Average): 105 µM | Serum Urea After ([4]; Average): 10.4 mmol/L | Plasma Sodium % Change [4, 6]: −2% | Plasma Sodium During [4, 6]: 137 mEq/L | Serum Creatinine % Change [4, 6]: −24% | Serum Creatinine During [4, 6]: 189 µM | Serum Urea % Change [4, 6]: −72% | Serum Urea During [4, 6]: 8.8 mmol/L | Urinary Na over 24 hours % Change [4, 6]: 820% | Urinary Na over 24 hours During [4, 6]: 46 mEq/24 hr | Body Weight After [4, 6]: 74 kg | Body Weight % Change [4, 7]: −11% | Body Weight During [4, 7]: 74 kg | Paracenteses/Month % Change [4, 7]: −100% | Paracenteses/Month During [4, 7]: 0 /Month | Plasma Sodium % Change [4, 8]: 2% | Plasma Sodium During [4, 8]: 128 mEq/L | Serum Creatinine % Change [4, 8]: −46% | Serum Creatinine During [4, 8]: 208 µM | Serum Urea % Change [4, 8]: −37% | Serum Urea During [4, 8]: 23.2 mmol/L | Urinary Na over 24 hours During [4, 8]: 301 mEq/24 hr | Body Weight % Change [4, 9]: 11% | Body Weight During [4, 9]: 71 kg | Paracenteses/Month % Change [4, 9]: −25% | Paracenteses/Month During [4, 9]: 6 /Month | Volume Fluid Removed/Month % Change [4, 9]: −48% | Volume Fluid Removed/Month During [4, 9]: 42 L | Plasma Sodium % Change [4, 10]: 2% | Plasma Sodium During [4, 10]: 136 mEq/L | Serum Creatinine % Change [4, 10]: −50% | Serum Creatinine During [4, 10]: 116 µM | Serum Urea % Change [4, 10]: −46% | Serum Urea During [4, 10]: 9.1 mmol/L | Body Weight After [4, 10]: 128 kg | Plasma Sodium After [4, 10]: 140 mEq/L | Serum Creatinine After [4, 10]: 122 µM | Serum Urea After [4, 10]: 10.8 mmol/L | Body Weight % Change [4, 11]: −23% | Body Weight During [4, 11]: 99 kg | Paracenteses/Month % Change [4, 11]: −50% | Paracenteses/Month During [4, 11]: 2 /Month | Volume Fluid Removed/Month % Change [4, 11]: −65% | Volume Fluid Removed/Month During [4, 11]: 14 L | Plasma Sodium % Change [4, 12]: 15% | Plasma Sodium During [4, 12]: 141 mEq/L | Serum Creatinine % Change [4, 12]: −67% | Serum Creatinine During [4, 12]: 104 µM | Serum Urea % Change [4, 12]: −28% | Serum Urea During [4, 12]: 37.3 mmol/L | Urinary Na over 24 hours % Change [4, 12]: 1900% | Urinary Na over 24 hours During [4, 12]: 20 mEq/24 hr | Paracenteses/Month % Change [4, 13]: 50% | Paracenteses/Month During [4, 13]: 3 /Month | Volume Fluid Removed/Month % Change [4, 13]: −36% | Volume Fluid Removed/Month During [4, 13]: 9 L | Plasma Sodium % Change [4, 14]: −2% | Plasma Sodium During [4, 14]: 128 mEq/L | Serum Creatinine % Change [4, 14]: −19% | Serum Creatinine During [4, 14]: 55 µM | Serum Urea % Change [4, 14]: −17% | Serum Urea During [4, 14]: 5.3 mmol/L | Body Weight After [4, 14]: 77 kg | Serum Creatinine After [4, 14]: 55 µM | Serum Urea After [4, 14]: 10.5 mmol/L | Body Weight % Change [4, 15]: −10% | Body Weight During [4, 15]: 64 kg | Paracenteses/Month % Change [4, 15]: −33% | Paracenteses/Month During [4, 15]: 2 /Month | Volume Fluid Removed/Month % Change [4, 15]: −71% | Volume Fluid Removed/Month During [4, 15]: 6 L | Plasma Sodium % Change [4, 16]: 19% | Plasma Sodium During [4, 16]: 140 mEq/L | Serum Creatinine % Change [4, 16]: −54% | Serum Creatinine During [4, 16]: 90 µM | Serum Urea % Change [4, 16]: −68% | Serum Urea During [4, 16]: 6.6 mmol/L | Urinary Na over 24 hours % Change [4, 16]: 1869% | Urinary Na over 24 hours During [4, 16]: 315 mEq/24 hr | Body Weight After [4, 16]: 68 kg | Plasma Sodium After [4, 16]: 131 mEq/L | Serum Creatinine After [4, 16]: 137 µM | Serum Urea After [4, 16]: 10.0 mmol/L | Body Weight % Change [4, 17]: −14% | Body Weight During [4, 17]: 55 kg | Paracenteses/Month % Change [4, 17]: −100% | Paracenteses/Month During [4, 17]: 0 /Month | Volume Fluid Removed/Month % Change [4, 17]: −100% | Volume Fluid Removed/Month During [4, 17]: 0 L | overall average decrease of urea concentration in blood serum ([4]; all patients, during treatment): 45% | reduction of average monthly ascites fluid volume removed ([4]; during continuous infusion therapy vs prior to initiation): 55% | decrease of average body weight per patient ([4]; during therapy, proxy for ascitic fluid accumulation): 11% and 9 kg and ~19.8 lbs | improvement of ascites seen without diuretics ([4]; during treatment, number of patients): four of six patients | plasma sodium after the cessation of therapy ([4]; patient #6): remained normal | correction of severe hyponatremia ([4]; patients #4 and #6): corrected severe hyponatremia in two patients | average urinary sodium after starting therapy ([4]; three of six patients with data before and after starting continuous infusion, increased from 7): 127 mEq/24 h | average decrease in serum creatinine levels ([4]; treated group of patients): 47%
